From patent US6906205B2, “Spiro and dispiro 1,2,4-trioxolane antimalarials” (Medicines for Malaria Venture MMV, priority 2002, dated 2005)

Tested on: ANKA strain of P. berghei
Assay: single dose STI in vivo screen in infected mice
Set-up: species or system Plasmodium berghei
Details: for Activity (%) po / Activity (%) sc / Activity (%) SSVpo / Activity (%) 3 mg/kg SSV po / Activity (%) 10 mg/kg SSV po: percent reduction in parasitemia day 3 post-infection; for Activity (%) po / Survival (days) po: single 10 mg/kg po in 3% ethanol and 7% Tween 80; for Activity (%) po / Activity (%) sc / Activity (%) SSVpo: mice; for Activity (%) sc / Survival (days) sc: single 10 mg/kg sc in 3% ethanol and 7% Tween 80; for Survival (days) po / Survival (days) sc / Survival (days) SSVpo: untreated control 5.6 ± 0.3; for Activity (%) SSVpo: single po dose in standard suspending vehicle (SSV); for Survival (days) SSVpo: single po dose in SSV; for Activity (%) 10 mg/kg SSV po / Survival (days) 10 mg/kg SSV po: single 10 mg/kg po in SSV
Method: In the single dose STI in vivo screen, Moro SPF or NMRI mice infected with the ANKA strain of P. berghei (groups of 3-5 mice) were treated on day one post-infection with trioxolanes dissolved or suspended in 3% ethanol and 7% Tween 80. […] SSV consists of 0.5% w/v CMC, 0.5% v/v benzyl alcohol, 0.4% v/v Tween 80, and 0.9% w/v sodium chloride in water. Antimalarial activity was measured by percent reduction in parasitemia on day three post-infection and survival times compared to an untreated control group. Survival to day 30 post-infection is considered to be a cure. […] Other factors influencing antimalarial activity include the stability of carbon radicals formed by β-scission subsequent to the initial electron transfer to the peroxide bond and the influence of steric effects remote from the peroxide bond on the interactions between carbon radicals and potential drug targets.

| Structure (SMILES) | Activity (%) po | Activity (%) sc | Survival (days) po | Survival (days) sc | Activity (%) 3 mg/kg SSV po (single 3 mg/kg po in SSV) [%] | Activity (%) 10 mg/kg SSV po | Survival (days) 10 mg/kg SSV po | other results |
| --- | --- | --- | --- | --- | --- | --- | --- | --- |
| CCOC(=O)CCC1CCCCC12OOC1(O2)C2CC3CC(C2)CC1C3 (centres unmarked) [OZ08] | 99.7% | 99.9% | 8.0 days | 9.7 days |  |  |  |  |
| FC(F)(F)c1cccc(C2(c3cccc(C(F)(F)F)c3)OOC3(O2)C2CC4CC(C2)CC3C4)c1 (centres unmarked) [OZ46] | 99% | 62% | 7.7 days | 6.0 days |  |  |  |  |
| FC(F)(F)c1ccc(C2CCC3(CC2)OOC2(O3)C3CC4CC(C3)CC2C4)cc1 (centres unmarked) [OZ48] | 99.8% | 42% | 8.7 days | 6.3 days |  |  |  |  |
| CCOC(=O)CCC(=O)N1CCC2(CC1)OOC1(O2)C2CC3CC(C2)CC1C3 (centres unmarked) [OZ53] | 9% | 58% | 6.0 days | 6.3 days |  |  |  |  |
| O=C(C[n+]1ccccc1)NN=C1CCC2(CC1)OOC1(O2)C2CC3CC(C2)CC1C3.[Cl-] (centres unmarked) [OZ55] | 45% | 97% | 6.0 days | 7.3 days |  |  |  |  |
| O=C(c1ccncc1)N1CCC2(CC1)OOC1(O2)C2CC3CC(C2)CC1C3 (centres unmarked) [OZ100] | 61% | 80% | 6.7 days | 7.0 days |  |  |  | Activity (%) SSVpo: 36%; Survival (days) SSVpo: 6.3 days |
| O=C(COc1ccc(Cl)cc1)N1CCC2(CC1)OOC1(O2)C2CC3CC(C2)CC1C3 (centres unmarked) [OZ101] | 44% | 99.97% | 6.3 days | 13 days |  |  |  | Activity (%) SSVpo: 0%; Survival (days) SSVpo: 5.3 days |
| O=C(Nc1ccccc1)N1CCC2(CC1)OOC1(O2)C2CC3CC(C2)CC1C3 (centres unmarked) [OZ102] | 92% | 99.97% | 7.0 days | 19.7 days |  |  |  | Activity (%) SSVpo: 73%; Survival (days) SSVpo: 6.7 days |
| CC(C)(O)[C@H]1CC[C@]2(CC1)OOC1(O2)C2CC3CC(C2)CC1C3 (some centres unmarked) [OZ108] | 0/0/0% | 0/0/0% |  |  |  |  |  | Activity (%) SSVpo: 0/0/0%; Survival (days) SSVpo: 5.0 days |
| OC[C@H]1CC[C@]2(CC1)OOC1(O2)C2CC3CC(C2)CC1C3 (some centres unmarked) [OZ119] |  |  |  |  |  |  |  | Survival (days) SSVpo: 8.0 days |
| O=C1c2ccccc2C(=O)N1[C@H]1CC[C@]2(CC1)OOC1(O2)C2CC3CC(C2)CC1C3 (some centres unmarked) [OZ136] | 0/0/0% | 0/0/0% | 6.0/6.0/6.0 days | 6.0/6.0/6.0 days |  |  |  | Activity (%) SSVpo: 0/0/0%; Survival (days) SSVpo: 6.0/6.0/6.0 days |
| N[C@H]1CC[C@]2(CC1)OOC1(O2)C2CC3CC(C2)CC1C3 (some centres unmarked) [OZ137] | 0% | 61% |  |  |  |  |  | Activity (%) SSVpo: 6%; Survival (days) SSVpo: 6.3 days |
| Cc1ccc(NC(=O)N2CCC3(CC2)OOC2(O3)C3CC4CC(C3)CC2C4)cc1 (centres unmarked) [OZ142] | 0% | 99.98% | 6.0 days | 14.3 days |  |  |  | Activity (%) SSVpo: 2%; Survival (days) SSVpo: 6.3 days |
| O=C1c2ccccc2C(=O)N1C[C@H]1CC[C@]2(CC1)OOC1(O2)C2CC3CC(C2)CC1C3 (some centres unmarked) [OZ146] | 62% | 91% |  |  |  |  |  | Activity (%) SSVpo: 40%; Survival (days) SSVpo: 6.3 days |
| O=C(N1CCOCC1)N1CCC2(CC1)OOC1(O2)C2CC3CC(C2)CC1C3 (centres unmarked) [OZ188] | 93% | 99.87% | 8.7 days | 9.0 days |  |  |  | Activity (%) SSVpo: 98%; Survival (days) SSVpo: 10.0 days |
| O=C(Nc1ccc(Cl)cc1)N1CCC2(CC1)OOC1(O2)C2CC3CC(C2)CC1C3 (centres unmarked) [OZ192] | 38% | 99.98% | 6.0 days | 13.7 days |  |  |  | Activity (%) SSVpo: 45%; Survival (days) SSVpo: 7.0 days |
| O=C(NC[C@H]1CC[C@]2(CC1)OO[C@]1(O2)C2CC3CC(C2)CC1C3)N1CCOCC1 [OZ272] |  |  |  |  | 49 | 98% |  |  |
| O=C(NC[C@H]1CC[C@]2(CC1)OOC1(O2)C2CC3CC(C2)CC1C3)c1ccccc1O (some centres unmarked) [OZ280] |  |  |  |  |  | 0/ND % | 5.7ND days |  |
| O=C(NC[C@H]1CC[C@]2(CC1)OOC1(O2)C2CC3CC(C2)CC1C3)c1ccc(O)nc1 (some centres unmarked) [OZ282] |  |  |  |  | 53 |  | 8.3 days |  |
| Nc1ncccc1C(=O)NC[C@H]1CC[C@]2(CC1)OOC1(O2)C2CC3CC(C2)CC1C3 (some centres unmarked) [OZ284] |  |  |  |  | 61 | 97% | 9.0 days |  |

| Structure (SMILES) | Activity (%) po | Activity (%) sc | Survival (days) po | Survival (days) sc | Activity (%) 3 mg/kg SSV po (single 3 mg/kg po in SSV) [%] | Activity (%) 10 mg/kg SSV po | Survival (days) 10 mg/kg SSV po | other results |
| --- | --- | --- | --- | --- | --- | --- | --- | --- |
| CCNC(=O)NC[C@H]1CC[C@]2(CC1)OO[C@]1(O2)C2CC3CC(C2)CC1C3 [OZ291] |  |  |  |  | 34 | 98% | 8.0 days |  |
| c1cncc(NC[C@H]2CC[C@]3(CC2)OO[C@]2(O3)C3CC4CC(C3)CC2C4)c1 [OZ293] |  |  |  |  | 77 |  | 8.8 days |  |
| NS(=O)(=O)c1ccc(NC[C@H]2CC[C@]3(CC2)OO[C@]2(O3)C3CC4CC(C3)CC2C4)cc1 [OZ298] |  |  |  |  | 98 | 99.95% | 9.4 days |  |
| O=CN1CCN(C[C@H]2CC[C@]3(CC2)OO[C@]2(O3)C3CC4CC(C3)CC2C4)CC1 [OZ303] |  |  |  |  | 69 | 99.01% | 8.6 days |  |
| O=C(NC[C@H]1CC[C@]2(CC1)OO[C@]1(O2)C2CC3CC(C2)CC1C3)c1ccccn1 [OZ304] |  |  |  |  | 61 | 98% | 8.2 days |  |
| CS(=O)(=O)N(CC(N)=O)C[C@H]1CC[C@]2(CC1)OO[C@]1(O2)C2CC3CC(C2)CC1C3 [OZ308] |  |  |  |  | 30 | 86% | 7.8 days |  |
| Cn1ccnc1S(=O)(=O)C[C@H]1CC[C@]2(CC1)OO[C@]1(O2)C2CC3CC(C2)CC1C3 [OZ310] |  |  |  |  | 38 | 81% | 7.8 days |  |
| NC(=O)C1CCN(C(=O)C[C@H]2CC[C@]3(CC2)OO[C@]2(O3)C3CC4CC(C3)CC2C4)CC1 [OZ311] |  |  |  |  | 40 | 80% | 8.6 days |  |
| O=C(C[C@H]1CC[C@]2(CC1)OO[C@]1(O2)C2CC3CC(C2)CC1C3)N1CCN(c2ncccn2)CC1 [OZ314] |  |  |  |  | 11 | 13% |  |  |
| Cc1ccc(S(=O)(=O)O)cc1.N[C@H]1CC[C@H](NC(=O)C[C@H]2CC[C@]3(CC2)OO[C@]2(O3)C3CC4CC(C3)CC2C4)CC1 [OZ315] |  |  |  |  | 92 |  |  |  |
| O=C(CNC(=O)c1cccnc1)NC[C@H]1CC[C@]2(CC1)OO[C@]1(O2)C2CC3CC(C2)CC1C3 [OZ316] |  |  |  |  | 7 | 69% | 10.0 days |  |
| CCOC(=O)CCNCC1CCC2(CC1)OOC1(O2)C2CC3CC(C2)CC1C3.Cc1ccc(S(=O)(=O)O)cc1 (centres unmarked) [OZ318] |  |  |  |  | 29 | 88% |  |  |
| NC(=O)c1cncn1C[C@H]1CC[C@]2(CC1)OO[C@]1(O2)C2CC3CC(C2)CC1C3 [OZ321] |  |  |  |  | 64 | 99.77% | 14.0 days |  |
| O=S(=O)(C[C@H]1CC[C@]2(CC1)OO[C@]1(O2)C2CC3CC(C2)CC1C3)c1cccc[n+]1[O-] [OZ324] |  |  |  |  |  | 60% |  |  |
| Cn1nnnc1SC[C@H]1CC[C@]2(CC1)OO[C@]1(O2)C2CC3CC(C2)CC1C3 [OZ331] |  |  |  |  | 66 | 99.47% | 9.0 days |  |
| Cn1nnnc1S(=O)(=O)C[C@H]1CC[C@]2(CC1)OO[C@]1(O2)C2CC3CC(C2)CC1C3 [OZ332] |  |  |  |  | 0 | 8% |  |  |
| O=C(NC[C@H]1CC[C@]2(CC1)OO[C@]1(O2)C2CC3CC(C2)CC1C3)[C@@H]1CCCN1 [OZ337] |  |  |  |  | 97 | 99.92% | 8.6 days | Survival (days) 3 mg/kg SSV po (single 3 mg/kg po in SSV): 11.6 days |
| N[C@H]1CCN(C(=O)C[C@H]2CC[C@]3(CC2)OO[C@]2(O3)C3CC4CC(C3)CC2C4)C1 [OZ338] |  |  |  |  | 99.80 | 99.93% | 9.8 days |  |
| N=C(N)NC(=O)C[C@H]1CC[C@]2(CC1)OO[C@]1(O2)C2CC3CC(C2)CC1C3 [OZ341] |  |  |  |  | 32 | 97% | 8.0 days |  |
| O=C(C[C@H]1CC[C@]2(CC1)OO[C@]1(O2)C2CC3CC(C2)CC1C3)N1CCS(=O)(=O)CC1 [OZ342] |  |  |  |  | 0 | 27% | 6.8 days |  |
